The values below come from patent publication US4925877A, “Physiologically active erbstatin analogue compounds and compositions” (Zaidanhojin Biseibutsu Kagaku Kenkyukai, priority 1986, dated 1990).

Each structure is given as a SMILES string. pIC50: −log10 of the molar value. Converted amounts (≈) assume the structure as drawn. Like-named read-outs stand apart in the source and are kept apart here.

Assay [1] concerns the target T1, tyrosine-specific protein-kinase (epidermal growth factor receptor-kinase, A-431 membrane fraction) (Homo sapiens, UniProt P00533).
T1 construct: a membrane fraction of human epidermal carcinoma cells A-431 was used; endogenous in cells; host or cells: A-431 human epidermal carcinoma cells, membrane fraction
Put plainly: TPK-I activity (inhibition of tyrosine-specific protein-kinase / epidermal growth factor receptor-kinase, 32P-ATP, A-431 membrane fraction). In kind it is biochemical. The settings on record: for IC50: A-431 membrane fraction, EGF, histone, pH 7.4, 0° C., 30 minutes, read-out: TPK-I IC50 (converted). How it is done:
50 μl of the reaction mixture was sampled and absorbed to Wattman No. 3MM filter membrane and dipped in an ice-cooled TCA. After kept for 30 minutes, the filter membrane was taken out and washed out TCA, ethanol and ether, and the count of ^32 P as stuck to the said filter membrane was measured (a). The same reaction and treatment were carried out, where the test substance only was excluded, and the count of ^32 P on the filter was measured in the same manner (b). Further, the values as measured in the cases where the membrane fraction was excluded were (a') and (b'), respectively. Thus, the percentage of the inhibition of the epiderman growth factor receptor-kinase was calculated from the formula of […].
The TPK-I activity of typical compounds of the present invention was extremely high at a low concentration, as shown in the following Table.

In assay [2] the test system is Psudomonas aeruginosa A3. Nature of the assay: Antimicrobial activity, MIC by agar dilution method (Psudomonas aeruginosa A3). In kind it is cell-based. The settings on record: read-out: MIC (Psudomonas aeruginosa A3). For orientation: In agar dilution, organisms are placed on agar that contains the substance at set levels.
Description: (§1) The minimum growth inhibition concentration (MIC) of the compounds of the present invention against various bacteria was measured by means of an agar dilution method using Muller-Hinton medium, which is shown in the following Table.
Assay [3] has as its system L 1210 leukemia cells. Nature of the assay: Growth inhibition activity against cultured carcinoma cells (L 1210 leukemia cells). In kind it is cell-based. The settings on record: Mus musculus, L1210, 72 h, read-out: L 1210 IC50 (50%-inhibition concentration against growth). How it is done:
(B) Growth inhibition activity against cultured carcinoma cells:
After the incubation, the number of the cells was counted and the activity was evaluated.

Assay [4] has as its system Staphylococcus aureus Smith. Nature of the assay: Antimicrobial activity, MIC by agar dilution method (Staphylococcus aureus Smith). In kind it is cell-based. The note with it: read-out: MIC (Staphylococcus aureus Smith).
Description: as §1
Assay [5] deals with T1, tyrosine-specific protein-kinase (epidermal growth factor receptor-kinase, A-431 membrane fraction). The note with it: MH435-A, earlier application; cited from earlier work.
In assay [6] the test system is various bacteria. The settings on record: MH435-A, earlier application; cited from earlier work.
Assay [7] concerns cultured carcinoma cells. The note with it: MH435-A, earlier application; cited from earlier work.
Where [8] appears, read: agar dilution method, Muller-Hinton medium.
Setting [9] is: L 1210 leukemia cells, 3 days, 37° C., 5% CO2.

T1 sequence (P00533 25-1210): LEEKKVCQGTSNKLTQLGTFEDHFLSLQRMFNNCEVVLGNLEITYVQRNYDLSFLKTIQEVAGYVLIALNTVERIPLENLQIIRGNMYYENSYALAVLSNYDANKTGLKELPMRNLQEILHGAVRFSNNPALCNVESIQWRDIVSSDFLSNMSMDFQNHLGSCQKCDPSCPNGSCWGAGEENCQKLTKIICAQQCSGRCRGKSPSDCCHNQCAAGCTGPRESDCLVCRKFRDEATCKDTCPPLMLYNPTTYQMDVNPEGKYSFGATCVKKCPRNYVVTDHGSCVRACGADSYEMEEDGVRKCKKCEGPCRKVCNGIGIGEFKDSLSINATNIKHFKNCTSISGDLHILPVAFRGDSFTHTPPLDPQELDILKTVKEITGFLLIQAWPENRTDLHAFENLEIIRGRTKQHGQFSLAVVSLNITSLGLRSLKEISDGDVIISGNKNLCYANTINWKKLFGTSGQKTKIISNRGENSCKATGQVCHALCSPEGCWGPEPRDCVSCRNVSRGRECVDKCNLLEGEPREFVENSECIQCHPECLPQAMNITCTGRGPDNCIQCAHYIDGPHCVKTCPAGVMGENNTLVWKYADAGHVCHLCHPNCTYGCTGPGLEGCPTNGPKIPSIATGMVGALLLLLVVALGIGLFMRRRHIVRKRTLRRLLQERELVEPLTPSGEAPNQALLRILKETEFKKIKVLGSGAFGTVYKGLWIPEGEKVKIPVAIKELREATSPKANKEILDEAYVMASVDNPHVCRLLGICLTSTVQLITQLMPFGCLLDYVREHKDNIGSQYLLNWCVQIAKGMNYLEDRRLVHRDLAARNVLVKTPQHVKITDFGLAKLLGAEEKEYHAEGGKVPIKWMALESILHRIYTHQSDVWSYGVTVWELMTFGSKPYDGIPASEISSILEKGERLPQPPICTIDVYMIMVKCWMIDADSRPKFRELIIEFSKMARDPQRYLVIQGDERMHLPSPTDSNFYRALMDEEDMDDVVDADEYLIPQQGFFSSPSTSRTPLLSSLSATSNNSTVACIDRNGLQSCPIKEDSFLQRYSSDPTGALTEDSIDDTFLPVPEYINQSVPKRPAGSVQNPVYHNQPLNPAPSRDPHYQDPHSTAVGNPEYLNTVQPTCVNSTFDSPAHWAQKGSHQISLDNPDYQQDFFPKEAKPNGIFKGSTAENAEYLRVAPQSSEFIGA

For orientation: MIC means the lowest concentration that inhibits growth of the organism. Take `[C-]#[N+]C=Cc1cc(Br)ccc1O` [Compound 2, 2-(5-bromo-2-hydroxyphenyl)vinylisocyanide]: the results for the IC50 in assay [1] and in assay [3] (setting [9]) were over 28.6 µM and 0.25 µg/mL (≈ 1.12 µM), respectively. Also, the values for the MIC in assay [2] (setting [8]) and in assay [4] (setting [8]) were 12.5 µg/mL (≈ 55.8 µM) and 6.25 µg/mL (≈ 27.9 µM), respectively.

For orientation: pIC50 means the IC50 on a negative log10 scale, so that one unit is a factor of ten. Read a high pIC50 as a low IC50. For `[C-]#[N+]C=Cc1cc(OC)ccc1OC` [Compound 3, 2-(2,5-dimethoxyphenyl)vinylisocyanide], the pIC50 in assay [1] is under 4.28. The results for the MIC in assay [2] and in assay [4] were 25 µg/mL (≈ 132 µM) and 3.12 µg/mL (≈ 16.5 µM), respectively. The IC50 in assay [3] is 0.65 µg/mL (≈ 3.44 µM).

For `O=CNC=Cc1cc(Br)ccc1O` [Compound 9, (2-formamidovinyl)-5-bromo-2-hydroxybenzene], the IC50 is over 26.4 µM in assay [1] and 12 µg/mL (≈ 49.6 µM) in assay [3] (setting [9]). In addition, the minimum inhibitory concentration (MIC) in assay [2] (setting [8]) was over 50 µg/mL; in assay [4] (setting [8]), 100 µg/mL (≈ 413 µM).

Regarding `COc1ccc(OC)c(C=CNC=O)c1` [Compound 10, (2-formamidovinyl)-2,5-dimethoxybenzene], the IC50 in assay [1] is over 145 µM; in assay [3] (setting [9]), 62 µg/mL (≈ 299 µM). Further, the MIC in assay [2] (setting [8]) and in assay [4] (setting [8]) was over 100 µg/mL each time.

Turning to `COc1ccc(O)c(C=CNC=O)c1` [Compound 11, (2-formamidovinyl)-2-hydroxy-5methoxybenzene], the IC50 in assay [1] was over 33.1 µM; in assay [3] (setting [9]), 23 µg/mL (≈ 119 µM). The MIC in assay [2] (setting [8]) is over 50 µg/mL; in assay [4] (setting [8]), over 100 µg/mL.

`O=CNC=Cc1ccccc1O` [Compound 12, (2-formamidovinyl)-2-hydroxybenzene]: the values for the MIC in assay [2] (setting [8]) and in assay [4] (setting [8]) were over 50 µg/mL and over 100 µg/mL, respectively. Besides, the IC50 in assay [3] (setting [9]) was determined as 30 µg/mL (≈ 184 µM).

Take `O=CNC=Cc1cccc(O)c1O` [Compound 13, (2-formamidovinyl)-2,3-dihydroxybenzene]: the values for the IC50 in assay [1] and in assay [3] (setting [9]) were 1.67 µM and 2.2 µg/mL (≈ 12.3 µM), respectively. Further, the MIC in assay [2] (setting [8]) and in assay [4] (setting [8]) was 100 µg/mL (≈ 558 µM) in each case.

Take `O=CNC=Cc1ccc(O)c(O)c1` [Compound 14, (2-formamidovinyl)-3,4-dihydroxybenzene]: the IC50 in assay [1] is 7.26 µM; in assay [3] (setting [9]), 22 µg/mL (≈ 123 µM). The MIC was 25 µg/mL (≈ 140 µM) in assay [2] (setting [8]) and over 50 µg/mL in assay [4] (setting [8]).

Consider `CC(=O)NC=Cc1cc(O)ccc1O` [Compound 18, (2-acetamidovinyl)-2,5-dihydroxybenzene], for which the IC50 is 15.5 µM in assay [1] and 3 µg/mL (≈ 15.5 µM) in assay [3] (setting [9]).

Take `O=CNC=Cc1cc(O)ccc1O` [MH435-A]: the “inhibition of tyrosine-specific protein-kinase activity (in words)” value in assay [5] is “can inhibit the said protein-kinase activity in a low concentration”. Also, the “antimicrobial activity (in words)” value in assay [6] was “has antimicrobial activity”. In addition, the “antitumor activity (in words)” value in assay [7] was “antitumor activity”.
